Measurements taken from patent US20120289563A1, “COMBINATIONS OF IMIDAFENACIN AND SALIVARY STIMULANTS FOR THE TREATMENT OF OVERACTIVE BLADDER” (THERAVIDA, INC., priority 2011, published 2012).

Assays:
[1] = 5 mg of pilocarpine; cited from earlier work
[2] = Pilot human study of saliva flow rate (Parafilm chewed for 2 minutes, saliva weighed); assay type: in vivo; conditions: 0.1 mg Uritos; single subject
Procedure: In this study, the effect of imidafenacin (Uritos®), pilocarpine, the combination of the two, and placebo was measured in separate, yet identical, studies in a single individual.
The following protocol was for a pilot human study to evaluate the extent of saliva flow rate following the administration of 0.1 mg Uritos® tablet and 5 or 10 mg pilocarpine HCl tablet after about 0.5 or 3 hrs from imidafenacin administration. The subject was a healthy, person. The subject performed the following: • 1. Fast the night before. • 2. No coffee or soda 8 hrs prior to taking the first dose. • 3. Record time voiding and measure urine if possible. • 4. Record extent of dryness of the mouth (Very dry, dry, and not dry). • 5. Record any adverse event. • 6. Chew a 1″×1″ piece of Parafilm (American National Can (Neenah, Wis. 54956) Bar code No. 7-466676999) over 2 minutes. • 7. Collect wetted Parafilm and saliva into a tared container (pre-weighed container). • 8. Measure the amount of saliva collected. • 9. Plot Saliva collected per 2 min time intervals against time.
The subject fasted overnight, but had 240 mL of water 1 hr prior to dose. The water continued ad lib until 1 hr pre and 1 hr post dose, other than 120 mL with Uritos® and 120 mL with 5 mg Salagen tablet. For lunch, the subject consumed a light sandwich. No coffee, soda, or caffeinated or alcoholic beverages was consumed. […]

Time of maximum dry mouth / maximum saliva depression point after administration [2]	SMILES	Time of maximum saliva output after administration [1]
	CC[C@@H]1C(=O)OC[C@@H]1Cc1cncn1C [pilocarpine]	about 30 minutes
about 5 hours	Cc1nccn1CCC(C(N)=O)(c1ccccc1)c1ccccc1 [imidafenacin, 4-(2-methyl-1H-imidazol-1-yl)-2,2-diphenylbutanamide]	
